For experiment [1], the target named is T1, AHR (Homo sapiens, UniProt P35869).
T1 construct: U87 MG glioblastoma cells (ATCC #HTB-14) endogenously expressing AHR; endogenous in cells; host or cells: U87 MG glioblastoma cells (ATCC #HTB-14)
T1 sequence (P35869 11-848): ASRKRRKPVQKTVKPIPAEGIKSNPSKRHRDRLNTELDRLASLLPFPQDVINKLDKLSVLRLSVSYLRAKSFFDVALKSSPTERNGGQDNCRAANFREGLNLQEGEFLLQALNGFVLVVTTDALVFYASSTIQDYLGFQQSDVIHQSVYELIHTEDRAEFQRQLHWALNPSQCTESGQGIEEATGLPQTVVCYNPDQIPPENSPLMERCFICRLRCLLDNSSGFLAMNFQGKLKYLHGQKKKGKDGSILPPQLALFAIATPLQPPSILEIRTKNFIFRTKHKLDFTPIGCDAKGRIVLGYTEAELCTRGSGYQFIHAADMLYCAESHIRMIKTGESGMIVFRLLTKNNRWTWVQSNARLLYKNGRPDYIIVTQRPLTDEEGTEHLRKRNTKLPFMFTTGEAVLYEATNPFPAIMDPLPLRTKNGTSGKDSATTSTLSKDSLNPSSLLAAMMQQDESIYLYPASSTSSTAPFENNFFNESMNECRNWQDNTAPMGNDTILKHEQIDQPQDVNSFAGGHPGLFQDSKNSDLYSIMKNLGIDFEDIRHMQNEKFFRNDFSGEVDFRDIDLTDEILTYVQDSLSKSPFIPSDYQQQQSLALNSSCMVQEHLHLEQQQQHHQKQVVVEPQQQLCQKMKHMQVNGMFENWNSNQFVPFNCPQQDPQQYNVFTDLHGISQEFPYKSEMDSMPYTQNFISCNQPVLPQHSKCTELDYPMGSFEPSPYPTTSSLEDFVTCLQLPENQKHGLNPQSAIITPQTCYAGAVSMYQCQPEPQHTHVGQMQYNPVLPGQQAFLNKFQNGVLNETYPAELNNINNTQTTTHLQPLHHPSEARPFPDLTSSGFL
The experiment in a line: In vitro assay 1: antagonism in human cell line (AHR transactivation, firefly luciferase reporter, kynurenic acid prestimulated). Format: cell-based. As to conditions: AHR Antagonism Human IC50 [M]. Put shortly:
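Antagonism measured as loss of kynurenic acid-driven firefly luciferase from DRE reporter in stably transfected U87 MG cells; constitutive Renilla signal monitors cytotoxicity. Positive/negative control normalization, staurosporine 5 μM with 150 μM kynurenic acid as inhibition control; replicates given as mean or median.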
Background: Reporter assays use an easily measured gene product as a stand-in for the process of interest.

Experiment [2] concerns the target T2, AHR (Mus musculus, UniProt P30561).
T2 sequence (P30561 1-848 P471L/N533S/M589L): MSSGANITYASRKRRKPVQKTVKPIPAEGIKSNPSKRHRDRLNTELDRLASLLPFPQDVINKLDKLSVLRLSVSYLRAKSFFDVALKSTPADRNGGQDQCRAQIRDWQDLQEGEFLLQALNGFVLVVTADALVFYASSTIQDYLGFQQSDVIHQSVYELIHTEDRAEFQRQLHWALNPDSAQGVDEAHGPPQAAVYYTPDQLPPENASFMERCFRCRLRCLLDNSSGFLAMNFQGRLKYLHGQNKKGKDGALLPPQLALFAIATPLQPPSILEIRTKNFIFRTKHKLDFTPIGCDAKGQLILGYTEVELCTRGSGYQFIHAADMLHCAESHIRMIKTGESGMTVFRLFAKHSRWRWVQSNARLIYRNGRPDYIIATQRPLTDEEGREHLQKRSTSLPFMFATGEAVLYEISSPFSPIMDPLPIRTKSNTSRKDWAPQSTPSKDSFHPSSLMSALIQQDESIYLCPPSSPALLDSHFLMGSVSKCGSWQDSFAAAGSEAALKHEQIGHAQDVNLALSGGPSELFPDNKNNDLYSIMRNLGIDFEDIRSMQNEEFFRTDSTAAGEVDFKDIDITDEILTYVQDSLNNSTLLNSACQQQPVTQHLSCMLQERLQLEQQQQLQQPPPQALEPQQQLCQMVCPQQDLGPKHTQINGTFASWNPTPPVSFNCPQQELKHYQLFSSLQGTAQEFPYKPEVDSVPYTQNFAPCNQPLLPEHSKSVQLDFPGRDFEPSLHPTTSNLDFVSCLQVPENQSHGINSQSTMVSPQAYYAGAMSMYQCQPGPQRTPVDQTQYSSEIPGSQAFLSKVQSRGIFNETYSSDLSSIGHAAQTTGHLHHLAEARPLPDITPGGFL
The experiment in a line: In vitro assay 3: antagonism in mouse cell line (AHR transactivation, firefly luciferase reporter, kynurenic acid prestimulated). Format: cell-based. The conditions noted are these: 200 μM kynurenic acid, 20 hours, read-out: AHR Antagonism Mouse IC50. The method in brief:
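Kynurenic acid-prestimulated mouse reporter cells; stable AHR-inducible firefly luc construct with DRE sites in promoter. No-agonist wells = positive inhibition ctrl. Luminescence normalized to pos/neg ctrls; n>1 reported as mean or median.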

[3] abbreviates: Hepa 1c1c7 cells, firefly luciferase reporter.

Read-outs that look alike come from different tables or passages of the source.

Take `Cc1nn(C)cc1-c1nc2c3cccc(Cl)c3nc(N[C@@H]3CNCCNC3=O)n2n1` [Example 951, (6R)-6-{[7-chloro-2-(1,3-dimethyl-1H-pyrazol-4-yl)[1,2,4]triazolo[1,5-c]quinazolin-5-yl]amino}-1,4-diazepan-5-one]: the results for the IC50 on AHR [1] (firefly luciferase reporter) and at AHR [2] (setting [3]) were 3.22e-09 M and 5.44 nM, respectively.

As for `COc1ccc(-c2nc3c4cc(Cl)ccc4nc(N[C@@H]4CCCCNC4=O)n3n2)cc1` [Example 235, (3R)-3-{[9-chloro-2-(4-methoxyphenyl)[1,2,4]triazolo[1,5-c]quinazolin-5-yl]amino}azepan-2-one], the results for the IC50 against AHR [1] and at AHR [2] (mouse Hepa 1c1c7 cells) were 2.34e-09 M and 1.14 nM, respectively.

`Cc1sccc1-c1nc2c3ccccc3nc(N[C@@H]3CCN(C)C3=O)n2n1` [Example 350]: the IC50 amounted to 4.13e-08 M against AHR [1] and 3.59 nM on AHR [2] (mouse Hepa 1c1c7 cells).

As for `Cc1cc(-c2nc3c4ccccc4nc(N[C@@H]4CCNC4=O)n3n2)cs1` [Example 356, (3R)-3-{[2-(5-methylthiophen-3-yl)[1,2,4]triazolo[1,5-c]quinazolin-5-yl]amino}pyrrolidin-2-one], the IC50 was determined as 2.71e-08 M against AHR [1] and 30.4 nM at AHR [2] (mouse Hepa 1c1c7 cells).

As to `Cc1cccc2nc(N[C@@H]3CCCCNC3=O)n3nc(-c4cnn(C)c4)nc3c12` [Example 183, (3R)-3-{[10-methyl-2-(1-methyl-1H-pyrazol-4-yl)[1,2,4]triazolo[1,5-c]quinazolin-5-yl]amino}azepan-2-one], the IC50 was 2.48e-08 M against AHR [1] and 453 nM at AHR [2] (mouse Hepa 1c1c7 cells).

Consider `CCSc1cccc2c1nc(N[C@@H]1CCCCNC1=O)n1nc(-c3cnn(C)c3)nc21` [Example 769, (3R)-3-{[7-(ethylsulfanyl)-2-(1-methyl-1H-pyrazol-4-yl)[1,2,4]triazolo[1,5-c]quinazolin-5-yl]amino}azepan-2-one], for which the IC50 against AHR [1] was found to be 2.1e-08 M; on AHR [2] (mouse Hepa 1c1c7 cells), 151 nM.

`O=C1NCCCC[C@H]1Nc1nc2ccccc2c2nc(-c3cnn(C4CCOCC4)c3)nn12` [Example 600, (3R)-3-({2-[1-(oxan-4-yl)-1H-pyrazol-4-yI][1,2,4]triazolo[1,5-c]quinazolin-5-yl}amino)azepan-2-one]: the results for the IC50 against AHR [1] and on AHR [2] (mouse Hepa 1c1c7 cells) were 4.48e-08 M and 31.3 nM, respectively.

With `COc1ccc(-c2nc3c4cccc(CSC)c4nc(N[C@@H]4CCCCNC4=O)n3n2)cc1` [Example 863, (3R)-3-({2-(4-methoxyphenyl)-7-[(methylsulfanyl)methyl][1,2,4]triazolo[1,5-c]quinazolin-5-yl}amino)azepan-2-one], the IC50 worked out at 2.98e-09 M at AHR [1] (firefly luciferase reporter) and 12.9 nM on AHR [2] (setting [3]).

For `CCOc1cccc2c1nc(N[C@@H]1CCCCNC1=O)n1nc(-c3ccc(OC)cc3)nc21` [Example 667, (3R)-3-{[7-ethoxy-2-(4-methoxyphenyl)[1,2,4]triazolo[1,5-c]quinazolin-5-yl]amino}azepan-2-one], the IC50 on AHR [1] worked out at 2.68e-09 M; on AHR [2] (mouse Hepa 1c1c7 cells) it was 4.56 nM.

`O=C1NCCCC[C@H]1Nc1nc2ccccc2c2nc(-c3cncc(C(F)(F)F)c3)nn12` [Example 362, (3R)-3-({2-[5-(trifluoromethyl)pyridin-3-yl][1,2,4]triazolo[1,5-c]quinazolin-5-yl}amino)azepan-2-one]: the IC50 was determined as 1.91e-08 M against AHR [1] and 3.54 nM on AHR [2] (mouse Hepa 1c1c7 cells).

In the case of `CC[C@@H](Nc1nc2ccccc2c2nc(-c3cccc(OC(F)(F)F)c3)nn12)C(N)=O` [Example 314, (2R)-2-({2-[3-(trifluoromethoxy)phenyl][1,2,4]triazolo[1,5-c]quinazolin-5-yl}amino)butanamide], the values for the IC50 against AHR [1] and at AHR [2] (mouse Hepa 1c1c7 cells) were 6.9e-09 M and 0.922 nM, respectively.

As for `COCc1noc(-c2nc3c4ccccc4nc(N[C@@H]4CCCCNC4=O)n3n2)n1` [Example 303, (3R)-3-({2-[3-(Methoxymethyl)-1,2,4-oxadiazol-5-yl][1,2,4]triazolo[1,5-c]quinazolin-5-yl}amino)azepan-2-one], the IC50 was found to be 4.52e-07 M at AHR [1] and 293 nM on AHR [2] (mouse Hepa 1c1c7 cells).

`COc1cccc(-c2nc3c4ccccc4nc(N[C@@H](C(N)=O)c4ccccc4)n3n2)c1` [Example 89, (2R)-2-{[2-(3-methoxyphenyl)[1,2,4]triazolo[1,5-c]quinazolin-5-yl]amino}-2-phenylacetamide]: the IC50 against AHR [1] amounted to 1.29e-08 M; on AHR [2] (mouse Hepa 1c1c7 cells), 12.8 nM.

In the case of `CC(C)n1cc(-c2nc3c4cccc(C(F)(F)F)c4nc(N[C@H]4CNCCNC4=O)n3n2)cn1` [Example 960, (6S)-6-({2-[1-(propan-2-yl)-1H-pyrazol-4-yl]-7-(trifluoromethyl)[1,2,4]triazolo[1,5-c]quinazolin-5-yl}amino)-1,4-diazepan-5-one], the IC50 is 4.02e-08 M at AHR [1] (firefly luciferase reporter) and 93 nM on AHR [2] (setting [3]).

On to `O=C1NCCCC[C@H]1Nc1nc2ccccc2c2nc(-c3cccnc3)nn12` [Example 125, (3R)-3-{[2-(pyridin-3-yl)[1,2,4]triazolo[1,5-c]quinazolin-5-yl]amino}azepan-2-one], for which the IC50 against AHR [1] turned out to be 5.68e-10 M; at AHR [2] (mouse Hepa 1c1c7 cells), 4.64 nM.

In the case of `CC(C)(C)n1nccc1-c1nc2c3ccccc3nc(N[C@@H]3CCCCNC3=O)n2n1` [Example 608, (3R)-3-{[2-(1-tert-butyl-1H-pyrazol-5-yl)[1,2,4]triazolo[1,5-c]quinazolin-5-yl]amino}azepan-2-one], the half-inhibitory concentration (IC50) against AHR [1] turned out to be 1.12e-07 M; at AHR [2] (mouse Hepa 1c1c7 cells), 25.5 nM.

What is called IC50 is the concentration at which inhibition is half-maximal.
